In publication PMC5452050 (ACS Omega, 2017):
≈ marks a conversion by molar mass, not a printed value. Blank lines part the entries; values can stand above or below the molecule they belong to.

What was measured:
[1] = Liver microsomal stability; settings: dog, liver microsomes, pH 7.4
MV4-11 cells = test: MV4-11 cell proliferation; format: cell-based
CLK1 = CLK1 (Homo sapiens, UniProt P49759); test: Kd determination; format: binding
MOLM13^FLT3-ITD cells = test: MOLM13 cell viability; format: cell-based; settings: Homo sapiens, MOLM-13, 72 h, read-out: MOLM13^FLT3-ITD IC50
CLK4 = CLK4 (Homo sapiens, UniProt Q9HAZ1); test: Kd determination; format: binding
PBS stability = format: physicochemical
Solubility = format: physicochemical; settings: buffer, pH 7.4, aqueous buffer, kinetic from dmso stock
PIP5K1C = PIP5K1C (Homo sapiens, UniProt O60331); test: Kd determination; format: binding
[2] = biological target: TYK2 (JH1 domain-catalytic) (Homo sapiens, UniProt P29597); test: Kd determination; format: binding
CSF1R = CSF1R (Homo sapiens, UniProt P07333); test: Kd determination; format: binding
[3] = biological target: JAK2 (JH1 domain-catalytic) (Homo sapiens, UniProt O60674); test: Kd determination; format: binding
[4] = system: MOLM13^FLT3-ITD/D835Y cells; test: MOLM13 cell viability; format: cell-based; settings: Homo sapiens, MOLM-13, 72 h, read-out: MOLM13^FLT3-ITD/D835Y IC50
EPHB6 = EPHB6 (Homo sapiens, UniProt O15197); test: Kd determination; format: binding
PIK4CB = PIK4CB (Homo sapiens, UniProt Q9UBF8); test: Kd determination; format: binding
FLT3-ITD phosphorylation = test: Western blot of FLT3 signaling in MOLM13^FLT3-ITD cells; format: cell-based; settings: 1 h, read-out: FLT3 IC50 estimated from loss of FLT3-ITD phosphorylation
[5] = Liver microsomal stability; settings: female, CD-1, mouse, liver microsomes, pH 7.4
PDGFRB = PDGFRB (Homo sapiens, UniProt P09619); test: Kd determination; format: binding
NEK10 = NEK10 (Homo sapiens, UniProt Q6ZWH5); test: Kd determination; format: binding
FLT3 (ITD, F691L) = biological target: T1, FLT3 (ITD, F691L) (Homo sapiens, UniProt P36888, F691L/ITD); test: Kd determination; format: binding
T1 sequence (P36888 564-993 F691L): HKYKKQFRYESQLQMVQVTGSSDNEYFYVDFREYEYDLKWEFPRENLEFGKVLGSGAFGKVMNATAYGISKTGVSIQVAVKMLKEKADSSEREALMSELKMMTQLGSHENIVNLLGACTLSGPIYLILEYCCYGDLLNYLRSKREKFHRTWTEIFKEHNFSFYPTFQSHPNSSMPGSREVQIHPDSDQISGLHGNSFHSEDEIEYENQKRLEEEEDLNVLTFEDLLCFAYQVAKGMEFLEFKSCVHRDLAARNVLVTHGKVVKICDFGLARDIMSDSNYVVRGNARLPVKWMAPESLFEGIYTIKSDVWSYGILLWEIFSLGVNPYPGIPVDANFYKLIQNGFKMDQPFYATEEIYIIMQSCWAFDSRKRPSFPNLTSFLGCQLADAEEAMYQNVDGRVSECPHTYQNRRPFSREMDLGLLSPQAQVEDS

[6] = Liver microsomal stability; settings: both, human, liver microsomes, pH 7.4
[7] = Liver microsomal stability; settings: rat, liver microsomes, pH 7.4
[8] = In vivo pharmacokinetic study; parameters: species or system mouse
AXL = AXL (Homo sapiens, UniProt P30530); test: Kd determination; format: binding
AURKA = AURKA (Homo sapiens, UniProt O14965); test: Kd determination; format: binding
BLK = BLK (Homo sapiens, UniProt P51451); test: Kd determination; format: binding
LCK = LCK (Homo sapiens, UniProt P06239); test: Kd determination; format: binding
[9] = biological target: ABL1 (H396P)-phosphorylated (Homo sapiens, UniProt P00519, H396P); test: Kd determination; format: binding
TRKA = TRKA (Homo sapiens, UniProt P04629); test: Kd determination; format: binding
SRC = SRC (Homo sapiens, UniProt P12931); test: Kd determination; format: binding
TYRO3 = TYRO3 (Homo sapiens, UniProt Q06418); test: Kd determination; format: binding
KIT = KIT (Homo sapiens, UniProt P10721); test: Kd determination; format: binding
RET (V804M) = RET (V804M) (Homo sapiens, UniProt P07949, V804M); test: Kd determination; format: binding
[10] = female, C57BL/6, mouse, plasma, ip, 3 mg/kg
[11] = female, C57BL/6, mouse, plasma, ip, 5 mg/kg
[12] = female, C57BL/6, mouse, plasma, ip, 10 mg/kg

Sequence of PDGFRB (P09619 33-1106): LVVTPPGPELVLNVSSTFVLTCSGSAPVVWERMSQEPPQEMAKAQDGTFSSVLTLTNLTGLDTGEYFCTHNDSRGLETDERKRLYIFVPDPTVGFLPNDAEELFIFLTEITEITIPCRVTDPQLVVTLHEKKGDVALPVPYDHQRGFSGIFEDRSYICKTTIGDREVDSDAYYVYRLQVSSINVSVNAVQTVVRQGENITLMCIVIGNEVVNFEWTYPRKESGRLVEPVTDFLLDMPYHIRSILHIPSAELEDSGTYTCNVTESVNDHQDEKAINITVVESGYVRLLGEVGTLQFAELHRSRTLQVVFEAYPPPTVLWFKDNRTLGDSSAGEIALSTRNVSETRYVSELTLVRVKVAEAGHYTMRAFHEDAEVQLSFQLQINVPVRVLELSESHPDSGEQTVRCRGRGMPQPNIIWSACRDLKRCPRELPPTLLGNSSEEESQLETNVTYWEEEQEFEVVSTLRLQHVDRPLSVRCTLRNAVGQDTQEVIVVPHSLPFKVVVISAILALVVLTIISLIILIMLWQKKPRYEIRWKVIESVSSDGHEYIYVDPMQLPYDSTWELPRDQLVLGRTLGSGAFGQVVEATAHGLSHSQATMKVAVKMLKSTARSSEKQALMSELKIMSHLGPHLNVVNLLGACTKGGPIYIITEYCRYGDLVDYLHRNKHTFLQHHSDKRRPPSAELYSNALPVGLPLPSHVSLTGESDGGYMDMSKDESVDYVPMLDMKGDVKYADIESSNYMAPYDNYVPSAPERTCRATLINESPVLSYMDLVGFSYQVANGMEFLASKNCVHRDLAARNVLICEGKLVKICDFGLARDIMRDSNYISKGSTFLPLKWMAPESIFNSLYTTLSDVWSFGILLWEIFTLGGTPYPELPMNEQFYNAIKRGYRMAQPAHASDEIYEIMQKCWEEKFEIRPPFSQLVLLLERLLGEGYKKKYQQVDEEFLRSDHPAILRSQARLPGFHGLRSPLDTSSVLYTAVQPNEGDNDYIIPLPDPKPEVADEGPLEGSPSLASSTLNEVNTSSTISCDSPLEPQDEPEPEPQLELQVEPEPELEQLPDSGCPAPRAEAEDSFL
Sequence of CLK4 (Q9HAZ1 whole entry): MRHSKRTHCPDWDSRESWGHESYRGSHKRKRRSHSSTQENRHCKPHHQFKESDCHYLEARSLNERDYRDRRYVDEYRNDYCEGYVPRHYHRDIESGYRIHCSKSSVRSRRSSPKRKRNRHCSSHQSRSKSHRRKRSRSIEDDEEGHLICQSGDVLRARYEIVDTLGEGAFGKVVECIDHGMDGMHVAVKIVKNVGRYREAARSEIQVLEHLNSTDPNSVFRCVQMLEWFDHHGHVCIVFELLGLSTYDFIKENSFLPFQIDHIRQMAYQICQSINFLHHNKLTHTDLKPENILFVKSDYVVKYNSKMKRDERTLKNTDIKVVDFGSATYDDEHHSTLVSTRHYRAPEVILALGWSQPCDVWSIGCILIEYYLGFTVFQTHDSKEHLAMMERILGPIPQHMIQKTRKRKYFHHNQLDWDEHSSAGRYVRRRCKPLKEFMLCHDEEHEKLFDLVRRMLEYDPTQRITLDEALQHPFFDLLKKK
Sequence of PIK4CB (Q9UBF8 whole entry): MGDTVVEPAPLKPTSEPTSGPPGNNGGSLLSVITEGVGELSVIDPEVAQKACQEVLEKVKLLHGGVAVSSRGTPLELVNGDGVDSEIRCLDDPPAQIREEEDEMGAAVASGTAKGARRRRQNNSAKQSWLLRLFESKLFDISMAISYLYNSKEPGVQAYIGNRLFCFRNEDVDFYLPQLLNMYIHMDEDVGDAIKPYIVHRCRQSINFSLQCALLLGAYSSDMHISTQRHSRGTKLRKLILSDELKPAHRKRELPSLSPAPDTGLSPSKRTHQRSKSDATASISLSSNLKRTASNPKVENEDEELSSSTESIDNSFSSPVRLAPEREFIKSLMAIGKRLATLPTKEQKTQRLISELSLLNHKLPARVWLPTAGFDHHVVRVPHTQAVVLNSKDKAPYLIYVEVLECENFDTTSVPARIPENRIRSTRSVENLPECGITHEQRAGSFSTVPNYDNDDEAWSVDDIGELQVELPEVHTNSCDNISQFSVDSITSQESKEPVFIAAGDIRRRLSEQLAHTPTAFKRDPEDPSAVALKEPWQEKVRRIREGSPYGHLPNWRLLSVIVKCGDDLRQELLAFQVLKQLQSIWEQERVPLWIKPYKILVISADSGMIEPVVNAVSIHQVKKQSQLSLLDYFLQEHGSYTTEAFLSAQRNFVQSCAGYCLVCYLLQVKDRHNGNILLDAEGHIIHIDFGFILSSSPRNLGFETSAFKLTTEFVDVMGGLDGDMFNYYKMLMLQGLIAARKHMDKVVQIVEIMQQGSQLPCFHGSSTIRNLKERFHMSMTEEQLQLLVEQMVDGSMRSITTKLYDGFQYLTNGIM
Sequence of PIP5K1C (O60331 whole entry, the tested form may be a part): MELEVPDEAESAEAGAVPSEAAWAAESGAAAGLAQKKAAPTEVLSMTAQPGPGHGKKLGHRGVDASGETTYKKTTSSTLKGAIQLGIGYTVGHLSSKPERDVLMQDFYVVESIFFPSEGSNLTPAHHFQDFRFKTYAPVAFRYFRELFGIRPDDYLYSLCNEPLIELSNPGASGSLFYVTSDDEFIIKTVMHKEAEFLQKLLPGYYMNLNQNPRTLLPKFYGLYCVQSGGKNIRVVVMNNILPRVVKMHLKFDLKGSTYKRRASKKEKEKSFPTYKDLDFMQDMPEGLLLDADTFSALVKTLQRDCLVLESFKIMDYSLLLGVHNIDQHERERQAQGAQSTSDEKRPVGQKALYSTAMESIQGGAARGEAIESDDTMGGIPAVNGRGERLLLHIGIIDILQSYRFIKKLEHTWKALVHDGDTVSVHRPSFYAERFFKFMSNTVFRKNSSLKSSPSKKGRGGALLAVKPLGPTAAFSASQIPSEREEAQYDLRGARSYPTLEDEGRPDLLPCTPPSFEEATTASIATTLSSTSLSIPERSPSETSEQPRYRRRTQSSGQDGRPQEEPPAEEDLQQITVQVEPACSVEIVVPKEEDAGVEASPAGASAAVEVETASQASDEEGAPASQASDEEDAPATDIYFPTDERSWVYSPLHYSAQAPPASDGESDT
Sequence of NEK10 (Q6ZWH5 whole entry): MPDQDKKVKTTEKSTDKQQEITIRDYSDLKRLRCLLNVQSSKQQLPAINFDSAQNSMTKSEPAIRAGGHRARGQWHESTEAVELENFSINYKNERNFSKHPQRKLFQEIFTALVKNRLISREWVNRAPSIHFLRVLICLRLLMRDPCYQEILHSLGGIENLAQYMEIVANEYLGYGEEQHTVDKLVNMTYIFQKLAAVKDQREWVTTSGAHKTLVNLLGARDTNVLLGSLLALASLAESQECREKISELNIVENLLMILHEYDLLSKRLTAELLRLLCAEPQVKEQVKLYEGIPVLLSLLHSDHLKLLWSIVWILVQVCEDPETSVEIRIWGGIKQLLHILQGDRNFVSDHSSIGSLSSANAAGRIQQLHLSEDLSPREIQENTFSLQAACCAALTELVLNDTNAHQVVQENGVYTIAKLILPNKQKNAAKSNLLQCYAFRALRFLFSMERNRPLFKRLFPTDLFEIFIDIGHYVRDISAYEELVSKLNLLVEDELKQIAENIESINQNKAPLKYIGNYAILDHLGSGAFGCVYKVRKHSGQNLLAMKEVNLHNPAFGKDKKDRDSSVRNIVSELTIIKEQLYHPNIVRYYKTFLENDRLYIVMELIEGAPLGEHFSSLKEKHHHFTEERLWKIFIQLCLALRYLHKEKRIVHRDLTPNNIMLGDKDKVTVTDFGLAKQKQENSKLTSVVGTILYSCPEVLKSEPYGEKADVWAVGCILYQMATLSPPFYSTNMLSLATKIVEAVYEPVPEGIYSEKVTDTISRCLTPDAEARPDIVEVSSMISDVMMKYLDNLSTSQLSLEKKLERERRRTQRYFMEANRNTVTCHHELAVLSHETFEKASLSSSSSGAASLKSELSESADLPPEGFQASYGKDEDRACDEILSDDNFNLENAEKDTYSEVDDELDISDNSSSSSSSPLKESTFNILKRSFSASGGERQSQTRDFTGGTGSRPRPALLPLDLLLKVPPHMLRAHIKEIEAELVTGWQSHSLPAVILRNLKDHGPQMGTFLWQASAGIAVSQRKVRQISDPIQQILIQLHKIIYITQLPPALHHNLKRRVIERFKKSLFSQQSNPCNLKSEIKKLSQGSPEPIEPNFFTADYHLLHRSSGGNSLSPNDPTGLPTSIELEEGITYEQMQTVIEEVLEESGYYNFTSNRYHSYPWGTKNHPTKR
Sequence of CLK1 (P49759 whole entry): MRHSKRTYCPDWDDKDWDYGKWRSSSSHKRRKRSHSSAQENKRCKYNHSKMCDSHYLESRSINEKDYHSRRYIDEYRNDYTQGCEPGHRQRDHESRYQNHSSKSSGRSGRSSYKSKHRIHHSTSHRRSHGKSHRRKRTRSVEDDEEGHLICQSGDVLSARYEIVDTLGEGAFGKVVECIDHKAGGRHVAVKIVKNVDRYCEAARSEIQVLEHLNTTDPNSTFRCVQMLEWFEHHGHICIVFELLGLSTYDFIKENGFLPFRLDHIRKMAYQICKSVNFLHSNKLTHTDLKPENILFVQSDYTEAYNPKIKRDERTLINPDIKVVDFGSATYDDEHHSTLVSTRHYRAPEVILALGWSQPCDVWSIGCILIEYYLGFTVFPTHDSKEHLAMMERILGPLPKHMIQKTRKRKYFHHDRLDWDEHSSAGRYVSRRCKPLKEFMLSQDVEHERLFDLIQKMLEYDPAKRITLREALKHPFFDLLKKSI
Sequence of TYK2 (JH1 domain-catalytic) (P29597 897-1176 limits assumed): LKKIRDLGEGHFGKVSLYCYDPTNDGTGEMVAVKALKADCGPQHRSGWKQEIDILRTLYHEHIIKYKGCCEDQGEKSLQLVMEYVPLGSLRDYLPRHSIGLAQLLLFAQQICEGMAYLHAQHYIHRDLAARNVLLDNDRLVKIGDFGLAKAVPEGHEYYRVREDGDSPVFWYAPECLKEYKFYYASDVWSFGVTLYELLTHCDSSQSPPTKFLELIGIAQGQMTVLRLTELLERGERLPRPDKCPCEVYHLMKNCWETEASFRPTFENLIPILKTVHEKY

CLint scaled at 4 µM [1]: 28.2 ± 1.9 mL/min/kg
half-life at 4 µM [1]: 72 ± 6 min
Kd (CLK1): 260 nM
IC50 (MOLM13^FLT3-ITD cells): 136 nM
Kd (CLK4): 1100 nM
PBS stability (PBS stability; pH = 3.0): >48 h
PBS stability (PBS stability; pH = 5.0): >48 h
PBS stability (PBS stability; pH = 7.4): >48 h
solubility at 18 h (Solubility): 26.4 ± 17 µM (≈ 8.06 µg/mL)
Kd (PIP5K1C): 1300 nM
Kd [2]: 740 nM
Kd (CSF1R): 460 nM
Kd [3]: 480 nM
IC50 [4]: 82 nM
Kd (EPHB6): 440 nM
Kd (PIK4CB): 330 nM
IC50 (FLT3-ITD phosphorylation): 50 to 100 nM
CLint scaled at 4 µM [5]: 180 ± 19.4 mL/min/kg
half-life [5]: 12 to 60 min
half-life at 4 µM [5]: 18 ± 1.8 min
Kd (PDGFRB): 28 nM
Kd (NEK10): 2000 nM
Kd (FLT3 (ITD, F691L)): 11 nM
CLint scaled at 4 µM [6]: 10 ± 0.6 mL/min/kg
half-life at 4 µM [6]: 126 ± 6 min
CLint scaled at 4 µM [7]: 41.7 ± 2.7 mL/min/kg
half-life at 4 µM [7]: 66 ± 6 min
AUC [8, 10]: 0.183 µM·h
Tmax [8, 10]: 4.98 min
Cmax ([8]; female, C57BL/6, mouse, plasma, ip, 3 mg/kg, Cmax, mice): 327 nM
half-life ([8]; female, C57BL/6, mouse, plasma, ip, 3 mg/kg, T1/2, mice): 13.8 min
AUC [8, 11]: 0.683 µM·h
Tmax [8, 11]: 4.98 min
Cmax ([8]; female, C57BL/6, mouse, plasma, ip, 5 mg/kg, Cmax, mice): 927 nM
half-life ([8]; female, C57BL/6, mouse, plasma, ip, 5 mg/kg, T1/2, mice): 32.4 min
AUC [8, 12]: 0.953 µM·h
Tmax [8, 12]: 15 min
Cmax ([8]; female, C57BL/6, mouse, plasma, ip, 10 mg/kg, Cmax, mice): 1620 nM
half-life ([8]; female, C57BL/6, mouse, plasma, ip, 10 mg/kg, T1/2, mice): 60 min
half-life ([8]; female, C57BL/6, mouse, plasma, ip, 10 mg/kg, half-life, mice, across 3, 5 and 10 mg/kg): 13.8 to 60 min
Cl ([8]; mice, i.p., 3 mg/kg): 50.7 L/h/kg
Cmax ([8]; mice, i.p., 3 mg/kg): 376 nM
Vz ([8]; mice, i.p., 3 mg/kg): 16.7 L/kg
Cl ([8]; mice, i.p., 5 mg/kg): 23.8 L/h/kg
Vz ([8]; mice, i.p., 5 mg/kg): 18.6 L/kg
Cl ([8]; mice, i.p., 10 mg/kg): 33.1 L/h/kg
Cmax ([8]; mice, i.p., 10 mg/kg): 1650 nM
Vz ([8]; mice, i.p., 10 mg/kg): 47.3 L/kg
Structure (SMILES): CC(C)Nc1ccnc(Nc2cccc(-c3cccnc3)c2)n1 [Compound 5e, N^4-Isopropyl-N^2-(3-(pyridin-3-yl)phenyl)pyrimidine-2,4-diamine]
fold improvement in MV4-11 growth inhibition relative to 1 (MV4-11 cells): approximately 10 fold

CLint scaled at 4 µM [1]: 49.4 ± 3.9 mL/min/kg
half-life at 4 µM [1]: 42 ± 6 min
Kd (CLK1): 430 nM
IC50 (MOLM13^FLT3-ITD cells): 620 nM
Kd (CLK4): 690 nM
Kd (AXL): 2100 nM
solubility at 18 h (Solubility): 0.4 ± 0.9 µM (≈ 0.138 µg/mL)
Kd (AURKA): 1600 nM
Kd (PIP5K1C): 610 nM
Kd (BLK): 3.9 µM
IC50 [4]: 1150 nM
Kd (PIK4CB): 370 nM
Kd (LCK): 2900 nM
CLint scaled at 4 µM [5]: 26.5 ± 1.6 mL/min/kg
half-life at 4 µM [5]: 15.6 ± 1.8 min
Kd (PDGFRB): 120 nM
Kd [9]: 2100 nM
Kd (NEK10): 410 nM
Kd (TRKA): 1100 nM
Kd (FLT3 (ITD, F691L)): 270 nM
Kd (SRC): 1100 nM
CLint scaled at 4 µM [6]: 26.6 ± 2.2 mL/min/kg
half-life at 4 µM [6]: 48 ± 6 min
CLint scaled at 4 µM [7]: 44.9 ± 1.4 mL/min/kg
half-life at 4 µM [7]: 62.4 ± 1.8 min
Kd (TYRO3): 2700 nM
Kd (KIT): 1500 nM
Kd (RET (V804M)): 1400 nM
Structure (SMILES): c1cncc(-c2cccc(Nc3nccc(NC4CCCCC4)n3)c2)c1 [Compound 1, N^4-Cyclohexyl-N^2-(3-(pyridin-3-yl)phenyl)pyrimidine-2,4-diamine]

IC50 (MOLM13^FLT3-ITD cells): > 10000 nM
IC50 [4]: 4260 nM
Kd (FLT3 (ITD, F691L)): > 10000 nM
Structure (SMILES): CC(C)Nc1ccnc(Nc2ccccc2-c2ccccc2)n1 [Compound 6a, N^2-([1,1′-Biphenyl]-2-yl)-N^4-isopropylpyrimidine-2,4-diamine]
